Legend:
Assay in all cases: relative viability (nuclei count vs DMSO), 5 days (fraction); higher = more cells survive
[1] = compound: CC[C@@H]1C(=O)N(C)c2cnc(Nc3ccc(C(=O)NC4CCN(C)CC4)cc3OC)nc2N1C1CCCC1 [BI-2536] + O=C(CCCCCCC(=O)Nc1ccccc1)NO [Vorinostat] (partner 1 µM)
Procedure, shortened: (§1)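 Cells from lung cancer lines were seeded into 1536-well plates and, one day later, dosed by pin tool. Treatments were either a single drug or a fixed dose of an anchor drug with five library-drug doses (not always all listed) in √10 steps. After 5 days, nuclei were stained in a one-step fixation (final 0.05% Triton X-100, 1% formaldehyde, 1 ug/ml Hoechst) and counted on 4× images, and relative viability is the treated-to-vehicle nuclei ratio, as the median of duplicate plates.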

[2] = compound: CC[C@@H]1C(=O)N(C)c2cnc(Nc3ccc(C(=O)NC4CCN(C)CC4)cc3OC)nc2N1C1CCCC1 [BI-2536] + COc1cccc2cc(-c3nc([C@H]4CC[C@H](C(=O)O)CC4)n4ncnc(N)c34)[nH]c12 [OSI-027] (partner 0.5 µM)
Procedure, shortened: as §1

[3] = compound: CC[C@@H]1C(=O)N(C)c2cnc(Nc3ccc(C(=O)NC4CCN(C)CC4)cc3OC)nc2N1C1CCCC1 [BI-2536] + C[C@]1(O)C[C@@H](c2nc(-c3ccc4ccc(-c5ccccc5)nc4c3)c3c(N)nccn32)C1 [Linsitinib] (partner 1 µM)
Procedure, shortened: as §1

[4] = compound: CC[C@@H]1C(=O)N(C)c2cnc(Nc3ccc(C(=O)NC4CCN(C)CC4)cc3OC)nc2N1C1CCCC1 [BI-2536] + Cc1nc(NC(=O)N2CCC[C@H]2C(N)=O)sc1-c1ccnc(C(C)(C)C(F)(F)F)c1 [Alpelisib] (partner 2 µM)
Procedure, shortened: as §1

Row | Cell Line | relative viability ([1]; first compound 0.01 µM) | relative viability ([1]; first compound 0.03162 µM) | relative viability ([1]; first compound 0.1 µM) | relative viability ([1]; first compound 0.3162 µM) | relative viability ([1]; first compound 1 µM) | relative viability ([2]; first compound 0.01 µM) | relative viability ([2]; first compound 0.03162 µM) | relative viability ([2]; first compound 0.1 µM) | relative viability ([2]; first compound 0.3162 µM) | relative viability ([2]; first compound 1 µM) | relative viability ([3]; first compound 0.01 µM) | relative viability ([3]; first compound 0.03162 µM) | relative viability ([3]; first compound 0.1 µM) | relative viability ([3]; first compound 0.3162 µM) | relative viability ([3]; first compound 1 µM) | relative viability ([4]; first compound 0.01 µM) | relative viability ([4]; first compound 0.03162 µM) | relative viability ([4]; first compound 0.1 µM) | relative viability ([4]; first compound 0.3162 µM) | relative viability ([4]; first compound 1 µM)
1 | NCI-H522 | 0.785 | 0.933 | 0.533 | 0.277 | 0.284 | 0.752 | 0.72 | 0.445 | 0.399 | 0.372 |  |  |  |  |  |  |  |  |  | 
2 | HCC-15 | 0.675 | 0.769 | 0.615 | 0.137 | 0.141 | 0.723 | 0.699 | 0.218 | 0.102 | 0.122 | 0.921 | 0.965 | 0.815 | 0.28 | 0.143 | 0.835 | 0.73 | 0.691 | 0.142 | 0.117
3 | A-427 | 0.871 | 0.859 | 0.296 | 0.19 | 0.165 | 0.464 | 0.471 | 0.251 | 0.12 | 0.119 | 1.15 | 1.23 | 1.08 | 1.13 | 0.304 | 1.11 | 1.04 | 1.03 | 0.381 | 0.136
4 | NCI-H2228 | 0.823 | 0.468 | 0.106 | 0.134 | 0.0804 | 0.576 | 0.437 | 0.141 | 0.124 | 0.26 | 0.692 | 1.06 | 0.63 | 0.116 | 0.155 | 0.899 | 0.373 | 0.193 | 0.211 | 0.202
5 | NCI-H1734 | 0.734 | 0.543 | 0.17 | 0.165 | 0.169 | 0.57 | 0.494 | 0.206 | 0.179 | 0.19 | 0.947 | 0.896 | 0.859 | 0.238 | 0.228 | 0.634 | 0.777 | 0.51 | 0.192 | 0.222
6 | PC-14 | 0.809 | 0.387 | 0.0698 | 0.0322 | 0.0218 | 0.906 | 0.546 | 0.111 | 0.032 | 0.0346 | 0.988 | 0.987 | 0.943 | 0.727 | 0.0823 | 0.951 | 0.891 | 0.877 | 0.0726 | 0.0642
7 | NCI-H1915 | 0.464 | 0.478 | 0.295 | 0.0928 | 0.0626 | 0.597 | 0.637 | 0.185 | 0.104 | 0.121 | 1.12 | 1.05 | 1.03 | 0.625 | 0.143 | 1.05 | 0.977 | 0.812 | 0.129 | 0.0999
8 | NCI-H1666 | 0.984 | 1.03 | 1.03 | 0.504 | 0.49 | 0.881 | 0.842 | 0.686 | 0.378 | 0.311 | 0.86 | 0.736 | 0.762 | 0.224 | 0.276 | 0.988 | 0.737 | 0.592 | 0.287 | 0.266
9 | HCC-366 | 0.336 | 0.347 | 0.0476 | 0.0183 | 0.0214 | 0.835 | 0.856 | 0.146 | 0.0244 | 0.0284 | 0.648 | 0.739 | 0.535 | 0.0173 | 0.0162 | 0.469 | 0.344 | 0.273 | 0.0093 | 0.0141
10 | SK-MES-1 | 1.17 | 0.934 | 0.441 | 0.136 | 0.188 | 0.601 | 0.458 | 0.178 | 0.173 | 0.182 | 1.08 | 1.01 | 0.979 | 1.02 | 0.176 | 0.869 | 0.957 | 0.786 | 0.147 | 0.186
11 | SW 1573 | 0.677 | 0.437 | 0.101 | 0.0801 | 0.113 | 0.681 | 0.44 | 0.133 | 0.0966 | 0.0839 | 0.696 | 0.683 | 0.82 | 0.161 | 0.132 | 0.821 | 0.842 | 0.791 | 0.162 | 0.123
12 | NCI-H661 | 0.714 | 0.323 | 0.292 | 0.302 | 0.306 | 0.697 | 0.379 | 0.35 | 0.208 | 0.209 | 0.458 | 0.567 | 0.709 | 0.232 | 0.2 | 0.149 | 0.577 | 0.619 | 0.216 | 0.24
13 | PC-3 [JPC-3] | 0.857 | 0.677 | 0.416 | 0.306 | 0.291 | 0.828 | 0.581 | 0.333 | 0.179 | 0.16 | 0.974 | 0.899 | 1 | 0.756 | 0.259 | 1.13 | 0.978 | 0.871 | 0.264 | 0.24
14 | NCI-H1623 |  |  |  |  |  | 0.433 | 0.392 | 0.39 | 0.233 | 0.294 |  |  |  |  |  |  |  |  |  | 
15 | Calu-6 |  |  |  |  |  |  |  |  |  |  | 0.923 | 1.02 | 0.816 | 0.0855 | 0.0964 | 0.985 | 0.682 | 0.285 | 0.0989 | 0.126
16 | LC-2-ad | 0.63 | 0.274 | 0.181 | 0.198 | 0.221 | 0.903 | 0.743 | 0.247 | 0.283 | 0.33 | 0.891 | 0.85 | 0.382 | 0.15 | 0.143 | 0.521 | 0.348 | 0.0935 | 0.0735 | 0.123
17 | CAL-12T | 0.817 | 0.695 | 0.278 | 0.147 | 0.129 | 0.646 | 0.531 | 0.188 | 0.144 | 0.191 | 0.913 | 0.808 | 0.852 | 0.165 | 0.286 | 1.13 | 1.07 | 1.08 | 0.173 | 0.141
18 | RERF-LC-KJ | 0.731 | 0.531 | 0.348 | 0.224 | 0.255 | 0.64 | 0.361 | 0.184 | 0.188 | 0.198 | 0.969 | 0.913 | 0.829 | 0.522 | 0.199 | 0.697 | 0.724 | 0.675 | 0.195 | 0.208
